In patent US20260069584A1, “METHODS OF TREATING CHRONIC MYELOID LEUKEMIA USING THE TYROSINE KINASE INHIBITOR VODOBATINIB” (Sun Pharma Advanced Research Company Ltd., priority 2022, published 2026):
Several values for one entry are separate records, joined by “and”; a condition that tells them apart may be missing. Equal entries are not always repeated.

Legend:
[1] = SAD study in healthy male volunteers: safety and tolerability; assay type: in vivo, human; settings: single-dose 6 mg, 12 mg and 24 mg
Procedure: Initially in the single ascending dose (SAD) study the safety, tolerability, and pharmacokinetics of the compound of Formula I at 6 mg, 12 mg, and 24 mg doses in healthy human male volunteers were evaluated. In this study, the healthy male volunteers within the mean age group of 28.7-35 years were orally administered an investigational medicinal product (IMP) or a placebo after an overnight fast (of at least 8 hours). The IMP used in this study was a hard gelatin capsule comprising the compound of Formula I of varying sizes containing either 6 mg or 24 mg of the compound of Formula I and the excipients. For the 12 mg dose, two capsules of 6 mg were used. The placebo formulation containing the excipients matched the compound of Formula I capsules in shape, size, and color. […] The median time of maximum concentration (Tmax: 2.5-3 hours, across dose range) was independent of the dose level. Dose-related increases in exposure (AUC and Cmax) were observed. […] The inter-subject variability, for the PK parameters, was generally higher in the 12 mg dose group when compared with that in the 6 mg and 24 mg dose groups (Table 07, and FIG. 1)
There were no clinically significant changes in laboratory parameters, and no clinically significant changes in vital signs or electrocardiogram were recorded for any subject.

[2] = system: Ph+ CML (CP CML, AP CML and BP CML) and Ph+ ALL; assay: Parts B and C pooled (n=59): disease response; assay type: in vivo, human
Procedure: Additionally, 71.2% of all the subjects were refractory and/or intolerant to ≥3 TKIs. The MCyR and MMR in subjects with CP CML were 63% and 34.8%, respectively, and those with more aggressive disease viz. AP CML, BP CML and Ph+ ALL were 53.8% and 30.8%, respectively.
The MTD of the compound of Formula I was 204 mg while RP2D was 174 mg QD. Anti-leukemic activity in the form of hematological, cytogenetic and molecular responses was reported across Parts B and C (n=59). Major cytogenetic responses were reported in 61% of subjects while major molecular responses were reported in 33.9% of subjects across doses. […] There is limited evidence of activity in the CML literature in such a heavily pre-treated population.

[3] = in vivo; assay type: in vivo; settings: 14-day study

## Cc1ccc(C(=O)NNC(=O)c2c(C)cccc2Cl)cc1C#Cc1cnc2ccccc2c1 [compound of Formula I, N′-(2-chloro-6-methylbenzoyl)-4-methyl-3-[2-(3-quinolyl)ethynyl]-benzohydrazide]
[1]
  withdrawal criteria based on QTcF prolongation or safety laboratory tests: No subject reached the subject withdrawal criteria
[1]; healthy subjects
  safety and tolerability: safe and well tolerated
[2]; 174 mg initial dose, 2 subjects
  major molecular response deepened to complete molecular response: 9.1%
[2]; 174 mg initial dose, 20 out of 24 subjects
  complete hematological response: 83.3%
[2]; 29 subjects with prior ponatinib (n=11 of 29)
  MMR: 37.93% and 37.9%
[2]; 29 subjects with prior ponatinib (n=15 of 29)
  MCyR: 51.7%
[2]; AP CML, BP CML and Ph+ ALL
  MCyR: 53.8%
  MMR: 30.8%
[2]; RP2D of 174 mg, independent of prior ponatinib exposure
  major cytogenetic response: 50%
[2]; all subjects, across doses
  major cytogenetic response (MCyR): 61%
  major molecular response (MMR): 33.9%
[2]; subjects with CP CML
  MCyR: 63%
  MMR: 34.8%
[3]
  dose up to which no mortality or severe clinical signs were observed: ≤ 625 mg/kg/day
[3]; dog, in vivo
  NOAEL at 14 days: 83 mg/kg/day
